Patent publication US10611765B2, “Pyrrolopyrimidine derivatives as Mps1/TTK kinase inhibitors” (Ohio State Innovation Foundation, priority 2014, dated 2020)
Where two headings read alike, the source gives them in different places.

Assays:
BT-549 = assay: MTS anti-proliferative assay, BT-549; type: cell-based; settings: BT-549, TNBC, basal B, treatment for 7 days
Description: (§1) The anti-proliferative effects and IC50 values of the compounds in the BC cell line panel were determined by MTS assay.
(§2) The cells, except Sk-Br-3, AU565 and BT-474 were maintained in a mixture of Dulbecco's modified Eagle's medium and Ham's F12 medium (1:1) (DMEM/F12) without phenol red supplemented with 5% fetal bovine serum (FBS) and 1× antibiotic-antimycotic (100 U/mL penicillin G sodium, 100 μg/mL streptomycin sulfate and 0.25 μg/mL amphotericin B) and were plated separately in flasks in a humidified incubator (5% CO2: 95% air, 37° C.). The media used for Sk-Br-3, AU565 and BT-474 cell lines was described in (1) Brueggemeier et al., J. Steroid Biochem. Mol. Biol., 2005; 95:129-136; and (2) Diaz-Cruz et al., J. Clin. Endocrinol. Metab., 2005; 90:2563-2570. The media were changed every 2-days. When the cells grew to about 80% confluence, cells were washed twice with calcium- and magnesium-free phosphate-buffered saline (PBS, pH 7.4), and then trypsinized with 0.05% trypsin-5.3 mm EDTA. The trypsinization was stopped by addition of culture medium with 5% FBS. After centrifugation, the dissociated cells were resuspended in the same medium and subcultured into 75-cm^2 culture flasks at a ratio of 1:5 flasks.
(§3) The BC cells were seeded at the density of 1,000 cells per well (100 μL) into 96 well plate in DMEM/F-12 (1:1), supplemented with 5% (v/v) FCS and incubated overnight at 37° C. Test compounds are solubilized in dimethyl sulfoxide (DMSO), diluted in cell culture medium to a range of final assay concentrations of 1 nM to 10 μM, added to cells and incubated for 7 days at 37° C. The medium including the test compound are refreshed at days 3 and 5. The MTS assay are carried out by using the CellTiter 96® AQueous One Solution Cell Proliferation Assay kit following the manufacturer's instruction.

CAL-51 = assay: MTS anti-proliferative assay, CAL-51; type: cell-based; settings: CAL-51, TNBC, basal, treatment for 7 days
Description: as §1, §2, §3

HCC1937 = assay: MTS anti-proliferative assay, HCC1937; type: cell-based; settings: HCC1937, TNBC, basal, treatment for 7 days
Description: as §1, §2, §3

MDA-MB-436 = assay: MTS anti-proliferative assay, MDA-MB-436; type: cell-based; settings: MDA-MB-436, TNBC, basal B, treatment for 7 days
Description: as §1
(§4) The media were changed every 2-days. When the cells grew to about 80% confluence, cells were washed twice with calcium- and magnesium-free phosphate-buffered saline (PBS, pH 7.4), and then trypsinized with 0.05% trypsin-5.3 mm EDTA. The trypsinization was stopped by addition of culture medium with 5% FBS.
as §3

MDA-MB-468 = assay: MTS anti-proliferative assay, MDA-MB-468; type: cell-based; settings: MDA-MB-468, TNBC, basal B, treatment for 7 days
Description: as §1, §2, §3

CAMA-1 = assay: MTS anti-proliferative assay, CAMA-1; type: cell-based; settings: CAMA-1, luminal, treatment for 7 days
Description: as §1, §2, §3

MDA-MB-453 = assay: MTS anti-proliferative assay, MDA-MB-453; type: cell-based; settings: MDA-MB-453, luminal A, treatment for 7 days
Description: as §1, §4, §3

BT-20 = assay: MTS anti-proliferative assay, BT-20; type: cell-based; settings: BT-20, TNBC, basal A, treatment for 7 days
Description: as §1, §2, §3

Hs578T = assay: MTS anti-proliferative assay, Hs578T; type: cell-based; settings: TNBC, basal B, treatment for 7 days
Description: as §1, §2, §3

MDA-MB-231 = assay: MTS anti-proliferative assay, MDA-MB-231; type: cell-based; settings: MDA-MB-231, TNBC, basal B, treatment for 7 days
Description: as §1, §2, §3

MCF-7 = assay: MTS anti-proliferative assay, MCF-7; type: cell-based; settings: MCF-7, luminal A, treatment for 7 days
Description: as §1, §2, §3

Sk-Br-3 = assay: MTS anti-proliferative assay, Sk-Br-3; type: cell-based; settings: Sk-Br-3, luminal, treatment for 7 days
Description: as §1, §2, §3

AU565 = assay: MTS anti-proliferative assay, AU565; type: cell-based; settings: AU565, luminal, treatment for 7 days
Description: as §1, §2, §3

T47D = assay: MTS anti-proliferative assay, T47D; type: cell-based; settings: luminal, treatment for 7 days
Description: as §1, §2, §3

BT-474 = assay: MTS anti-proliferative assay, BT-474; type: cell-based; settings: BT-474, luminal B, treatment for 7 days
Description: as §1, §2, §3

[1] = test system: panel of breast cancer cell lines; assay: Anti-proliferative assays, panel of BC cell lines (overall statements); type: cell-based; settings: in some or all of the cell based assays in the panel
Description: This example describes the development of novel small molecule Mps1/TTK inhibitors as targeted therapies for TNBC and other aggressive BC using drug discovery technologies. Using computational modeling, medicinal chemistry, biochemistry and cell culture assays, the inventors have identified novel small molecules as potential Mps1/TTK inhibitors. The compounds were evaluated in anti-proliferative assays of a panel of 15 BC cell lines and further examined for their ability to inhibit a variety of Mps1-dependent biological functions.
as §1, §2, §3

[2] = target: T1, Mps1/TTK kinase (recombinant GST-Mps1) (Homo sapiens, UniProt P33981); assay: Mps1 in vitro kinase assay with Cetn2 substrate; type: biochemical
T1 sequence (P33981 1-857): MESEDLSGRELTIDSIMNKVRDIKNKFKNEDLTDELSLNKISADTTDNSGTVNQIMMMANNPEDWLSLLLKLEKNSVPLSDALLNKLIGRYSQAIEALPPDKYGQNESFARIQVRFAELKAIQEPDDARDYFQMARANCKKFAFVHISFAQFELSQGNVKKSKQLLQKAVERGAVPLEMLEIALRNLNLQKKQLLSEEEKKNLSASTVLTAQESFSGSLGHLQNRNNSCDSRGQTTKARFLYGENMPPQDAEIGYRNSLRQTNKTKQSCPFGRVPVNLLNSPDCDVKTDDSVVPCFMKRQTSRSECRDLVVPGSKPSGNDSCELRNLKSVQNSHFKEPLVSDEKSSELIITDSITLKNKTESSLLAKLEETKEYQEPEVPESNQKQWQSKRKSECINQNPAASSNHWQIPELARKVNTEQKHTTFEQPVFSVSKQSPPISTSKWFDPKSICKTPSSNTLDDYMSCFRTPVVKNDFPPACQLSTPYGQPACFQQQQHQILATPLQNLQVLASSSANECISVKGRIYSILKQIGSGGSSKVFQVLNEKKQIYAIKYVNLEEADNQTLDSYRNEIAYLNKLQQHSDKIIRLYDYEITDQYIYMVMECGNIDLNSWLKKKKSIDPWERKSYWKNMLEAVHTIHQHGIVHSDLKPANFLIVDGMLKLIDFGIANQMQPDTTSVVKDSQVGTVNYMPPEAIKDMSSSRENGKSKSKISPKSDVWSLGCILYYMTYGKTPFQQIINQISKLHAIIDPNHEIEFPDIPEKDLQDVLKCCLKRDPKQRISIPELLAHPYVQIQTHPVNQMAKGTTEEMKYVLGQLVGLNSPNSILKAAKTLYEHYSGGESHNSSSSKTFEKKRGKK
Description: To determine the efficacy of the compounds against Mps1/TTK kinase activity, assays were performed as previously described (11) using recombinant Mps1, Cetn2 (specific substrate), and varying concentration of compound.

[3] = test system: S-phase (BrdU-positive) cells; assay: Centriole number in S-phase cells (preliminary investigations); type: cell-based; settings: drug for 20 hours, then 4 hour pulse of BrdU
Description: (§5) For these cell biology assays, cells were plated onto poly-L-lysine coated coverslips in 24 well dishes using the medium and growth conditions described above, but using medium containing phenol red. At 24 hours after plating, compounds (or the equivalent amount of DMSO) were added to individual wells at various concentrations. Cells were incubated for 24 hours at 37° C. BrdU was added during the last 4 hours of the incubation, after which cells were fixed in pre-chilled methanol at −20 OC for 10 minutes, stained with centrosome markers, then treated with acid to denature chromosomal DNA prior to staining for BrdU. To assess centriole biogenesis, centriole number was determined for triplicate samples in cells that had entered S-phase as judged by incorporation of BrdU. Primary antibodies used were mouse anti-γTubulin (pericentriolar material) and rabbit anti-Centrin 2 (centrioles). Secondary antibodies used were Alexa594-conjugated donkey anti-mouse and Alexa488-conjugated donkey anti-rabbit.
For centriole assembly assays, Cal-51 and MDA-MB-468 cells were treated with candidate compounds prior to a short pulse of BrdU. Because the centriole pair is replicated at the G1/S transition, compounds that block centrosome assembly will lead to an increased number of BrdU-positive cells with two centrioles. […]

Cal-51 cells = assay: Centriole assembly / centrosome amplification assay, Cal-51; type: cell-based; settings: Cal-51, at 10 μM
Description: as §5
For centriole assembly assays, Cal-51 and MDA-MB-468 cells were treated with candidate compounds prior to a short pulse of BrdU. Because the centriole pair is replicated at the G1/S transition, compounds that block centrosome assembly will lead to an increased number of BrdU-positive cells with two centrioles. In addition, like many breast cancer cells Cal-51 and MDA-MB-468 are capable of centrosome amplification, and compounds that block this centrosome amplification should reduce the number of BrdU-positive cells with more than four centrioles.

[4] = additional investigations (text to Table 2), read-out: IC50, in vitro kinase activity of Mps1
[5] = in vitro kinase assay with Cetn2 substrate, Table 2, read-out: IC50 w/Cetn 2

Compound | IC50 (BT-549; Homo sapiens, 168 h) [nM] | IC50 (CAL-51; Homo sapiens, 168 h) [nM] | IC50 (HCC1937; Homo sapiens, 168 h) [nM] | IC50 (MDA-MB-436; Homo sapiens, 168 h) [nM] | IC50 (MDA-MB-468; Homo sapiens, 168 h) [nM] | IC50 (CAMA-1; Homo sapiens, 168 h) [nM] | IC50 (MDA-MB-453; Homo sapiens, 168 h) [nM] | IC50 (BT-20; Homo sapiens, 168 h) [nM] | IC50 (Hs578T; Homo sapiens, Hs-578T, 168 h) [nM] | IC50 (MDA-MB-231; Homo sapiens, 168 h) [nM] | IC50 (MCF-7; Homo sapiens, MCF7, 168 h) [nM] | IC50 (Sk-Br-3; Homo sapiens, 168 h) [nM] | IC50 (BT-474; Homo sapiens, 168 h) [nM] | potency as compared to Mps1-IN-1 [1] | IC50 [2, 4] [nM] | IC50 [2, 5] [nM] | effect on centriole assembly [3] | effect on centriole assembly (Cal-51 cells) | effect on centrosome amplification (Cal-51 cells) | further results
COc1ccccc1Nc1nc(Nc2ccccc2S(=O)(=O)C(C)C)c2cc[nH]c2n1 [Compound 10, N4-(2-(isopropylsulfonyl)phenyl)-N2-(2-methoxyphenyl)-7H-pyrrolo-[2,3-d]pyrimidine-2,4-diamine] | 1600 | 1500 | 990 | 1290 | 1860 | 1550 | > 10000 | 50 | > 10000 | 450 | 350 | 970 | 720 | significantly more potent | 3400 | 3420 | – | – | – | IC50 (AU565; Homo sapiens, 168 h): > 10000 nM; IC50 (T47D; Homo sapiens, 168 h): 340 nM
COc1cc(N2CCOCC2)ccc1Nc1nc(Nc2ccccc2S(=O)(=O)C(C)C)c2cc[nH]c2n1 [Compound 11, N4-(2-(isopropylsulfonyl)phenyl)-N2-(2-methoxy-4-morpholinophenyl)-7H-pyrrolo[2,3-d]pyrimidine-2,4-diamine] | 1310 | 300 | 1100 | 1230 | 360 | 780 | > 10000 | 1500 | > 10000 | > 10000 | 400 | 370 | 330 | significantly more potent | 13100 | 13100 | – | – | – | –
COc1cc(N2CCC(O)CC2)ccc1Nc1cc(Nc2ccccc2S(=O)(=O)C(C)C)c2cc[nH]c2n1 [Mps1-IN-1, reference compound] | – | – | – | – | – | – | – | – | – | – | – | – | – | – | – | – | little effect | little effect | little effect | IC50 (BT-549): 2440 nM; IC50 (CAL-51): 1840 nM; IC50 (HCC1937): > 10000 nM; IC50 (MDA-MB-436): > 10000 nM; IC50 (MDA-MB-468): 1850 nM; IC50 (CAMA-1): > 10000 nM; IC50 (MDA-MB-453): > 10000 nM; IC50 (BT-20): > 10000 nM; IC50 (Hs578T): > 10000 nM; IC50 (MDA-MB-231): > 10000 nM; IC50 (MCF-7): > 10000 nM; IC50 (Sk-Br-3): > 10000 nM; IC50 (AU565): > 10000 nM; IC50 (T47D): > 10000 nM; IC50 (BT-474): > 10000 nM
AZ3146 | – | – | – | – | – | – | – | – | – | – | – | – | – | – | – | – | little effect | little effect | little effect | –
